What all share (type): biochemical
One experiment deals with T1, CDK2/CyclinE1 (Homo sapiens, UniProt P24941).
T1 construct: purchased Carna 04-165
As to the kind of experiment: CDK2/CyclinE1 kinase inhibitory activity (Caliper mobility shift). Particulars: enzyme 3 nM, ATP 77 μM, 28° C. 30 min; read-out: CDK2/Cyclin E1 IC50. How it is done:
CDK2/CyclinE1 kinase inhibitory activity (IC50): 5 μl of various dilutions of test compounds in 1×kinase buffer (50 mM HEPES pH 7.5, 10 mM MgCl2, 2 mM DTT and […] Brij-35) were mixed with 10 μL of CDK2/CyclinE1 (Carna, 04-165 #, final concentration 3 nM in 1×Kinase buffer) in 384 plates and incubated at room temperature for 10 min. To initiate each reaction, 10 μL of peptide solution containing fluorescently-labeled-peptide 18(5-FAM-QSPKKG-CONH2) (GL, 114202 #, final concentration 3000 nM) and ATP (final concentration 77 μM) in 1×Kinase buffer was added to each of the wells containing test compound and CDK2/CyclinE1 mixture. The reaction was then allowed to proceed at 28° C. for 30 min and terminated by the addition of 25 μL stop buffer (100 mM HEPES pH 7.5, 50 mM EDTA, 0.2% Coating Reagent #3 (Perkin Elmer, 760050 #) and 0.015% Brij-35).
(§1) Following the kinase reaction, Caliper EZ reader II (Downstream voltages: −500V, Upstream voltages: −2250V, Base pressure −0.5 PSI, Screen pressure −1.2 PSI) was used to separate the phosphorylated (product) and the unphosphorylated (substrate) fluorescently-labeled peptide 18 based on their different mobility. Both substrate and product were measured and the ratio of these values were used to generate % conversion by Caliper EZ reader II. These conversion values were then transformed into % inhibition of kinase activity using the formula: % Inhibition=[(MA−X)/(MA−MI)]×100% where MA=conversion value of DMSO only controls, MI=conversion value of no enzyme controls and X=conversion value at any given compound dose. IC50 values were then calculated by plotting dose-response curves and then using the XLfit application in Excel software.

The target in the next experiment is T2, CDK4/CyclinD1 (Homo sapiens, UniProt P11802).
T2 construct: purchased ProQinase 0142-0143-1
T2 sequence (P11802 whole entry): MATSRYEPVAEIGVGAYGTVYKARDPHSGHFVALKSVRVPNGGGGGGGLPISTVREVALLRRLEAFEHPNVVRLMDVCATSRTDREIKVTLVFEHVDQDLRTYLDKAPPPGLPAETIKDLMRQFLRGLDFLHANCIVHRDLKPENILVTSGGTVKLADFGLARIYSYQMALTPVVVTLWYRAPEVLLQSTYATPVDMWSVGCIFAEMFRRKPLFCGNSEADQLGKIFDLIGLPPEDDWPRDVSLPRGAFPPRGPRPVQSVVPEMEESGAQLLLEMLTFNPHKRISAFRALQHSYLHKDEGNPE
T2 sequence (P24385 whole entry partner): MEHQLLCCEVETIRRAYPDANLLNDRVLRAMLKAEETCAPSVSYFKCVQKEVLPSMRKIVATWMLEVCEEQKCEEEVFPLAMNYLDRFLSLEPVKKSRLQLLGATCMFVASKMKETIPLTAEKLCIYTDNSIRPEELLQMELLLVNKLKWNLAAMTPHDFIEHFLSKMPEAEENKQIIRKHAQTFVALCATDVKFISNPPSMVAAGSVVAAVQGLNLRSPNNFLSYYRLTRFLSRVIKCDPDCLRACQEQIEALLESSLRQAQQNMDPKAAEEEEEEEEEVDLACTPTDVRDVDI
As to the kind of experiment: CDK4/CyclinD1 kinase inhibitory activity (Caliper mobility shift). The following applies: enzyme 20 nM, ATP 672 uM, 28° C. 30 min; read-out: CDK4/Cyclin D1 IC50. A digest of the protocol: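 Recombinant CDK4/Cyclin D1 (20 nM final) preincubated 10 min at room temperature with compound in HEPES pH 7.5 buffer with MgCl2, DTT and Triton X-100. Reaction started with 3000 nM FAM-labelled peptide and 672 uM ATP, run 30 min at 28° C, stopped with EDTA. Mobility-shift % conversion gave % inhibition, and IC50 came from dose-response fits.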

In a further experiment the target is T3, CDK1/CyclinB (Homo sapiens, UniProt P06493).
T3 construct: purchased Millipore 14-450M
T3 sequence (P06493 whole entry): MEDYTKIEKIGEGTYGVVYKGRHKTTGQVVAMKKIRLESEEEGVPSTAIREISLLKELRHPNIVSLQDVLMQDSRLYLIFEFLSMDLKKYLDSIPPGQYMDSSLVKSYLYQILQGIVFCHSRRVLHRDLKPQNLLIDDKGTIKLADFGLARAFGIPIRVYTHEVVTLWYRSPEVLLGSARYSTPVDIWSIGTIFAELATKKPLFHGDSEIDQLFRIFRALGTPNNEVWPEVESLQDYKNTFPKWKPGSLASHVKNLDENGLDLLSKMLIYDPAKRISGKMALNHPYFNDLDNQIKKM
T3 sequence (P14635 whole entry partner): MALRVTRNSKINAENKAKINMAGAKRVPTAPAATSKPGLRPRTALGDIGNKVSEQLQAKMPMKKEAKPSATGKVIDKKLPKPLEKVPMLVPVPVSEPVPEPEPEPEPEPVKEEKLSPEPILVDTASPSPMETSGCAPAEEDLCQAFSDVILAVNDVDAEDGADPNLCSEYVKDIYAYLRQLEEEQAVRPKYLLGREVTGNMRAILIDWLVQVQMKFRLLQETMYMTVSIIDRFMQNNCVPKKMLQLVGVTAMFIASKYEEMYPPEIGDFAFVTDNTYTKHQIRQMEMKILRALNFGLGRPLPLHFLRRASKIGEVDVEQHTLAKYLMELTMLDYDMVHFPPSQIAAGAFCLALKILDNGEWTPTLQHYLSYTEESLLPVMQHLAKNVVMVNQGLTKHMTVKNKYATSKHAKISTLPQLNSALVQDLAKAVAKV
As to the kind of experiment: CDK1/CyclinB kinase inhibitory activity (Caliper mobility shift). The following applies: enzyme 3 nM, ATP 20 μM, 28° C. 30 min; read-out: CDK1/Cyclin B1 IC50. How it is done:
CDK1/CyclinB kinase inhibitory activity (IC50): 5 μl of various dilutions of test compound in 1× kinase buffer (50 mM HEPES pH 7.5, 10 mM MgCl2, 2 mM DTT and 0.01% Brij-35) was mixed with 10 μL of CDK1/CyclinB (Millipore, 14-450M #, final concentration 3 nM in 1× Kinase buffer) in 384 plates and incubated at room temperature for 10 min. To initiate each reaction, 10 μL of peptide solution containing fluorescently-labeled-peptide 18(5-FAM-QSPKKG-CONH2) (GL, 114202 #, final concentration 3000 nM) and ATP (final concentration 20 μM) in 1× Kinase buffer was added to each of the wells containing test compound and CDK1/CyclinB mixture. The reaction is then allowed to proceed at 28° C. for 30 min and terminated by the addition of 25 μL stop buffer (100 mM HEPES pH 7.5, 50 mM EDTA, 0.2% Coating Reagent #3 (Perkin Elmer, 760050 #) and 0.015% Brij-35).
as §1

The structures appear in SMILES notation. Where only a bound is given, the exact number is not on record here.

`CC1Cc2cnc3c(F)cc(-c4nc(N[C@@H]5CCOC[C@H]5O)ncc4Cl)cc3c2CN1` (single isomer, unassigned) [Example 34a]: the IC50 on CDK2/CyclinE1 was 10 to 100 nM; at CDK4/CyclinD1, under 10 nM; at CDK1/CyclinB, 100 to 1000 nM.

On to `Cc1c(C(C)O)cnc2c(F)cc(-c3nc(N[C@@H]4CCOC[C@H]4O)ncc3Cl)cc12` (single isomer, unassigned) [Example 88a], for which the results for the IC50 at CDK2/CyclinE1, on CDK4/CyclinD1 and on CDK1/CyclinB were 100 to 1000 nM, under 10 nM and 100 to 1000 nM, respectively.

Take `Cc1nc2c(F)cc(-c3nc(N[C@@H]4CCOC[C@H]4O)ncc3Cl)cc2cc1C1CCCN1` (single isomer, unassigned) [Example 57a]: the results for the IC50 on CDK2/CyclinE1, at CDK4/CyclinD1 and on CDK1/CyclinB were 100 to 1000 nM, under 10 nM and 100 to 1000 nM, respectively.

As to `Cc1nc2c(F)cc(-c3nc(N[C@@H]4CCOC[C@H]4O)ncc3Cl)cc2cc1C(C)(C)O` [Example 5, (3S,4R)-4-((5-chloro-4-(8-fluoro-3-(2-hydroxypropan-2-yl)-2-methylquinolin-6-yl)pyrimidin-2-yl)amino)tetrahydro-2H-pyran-3-ol], the IC50 at CDK2/CyclinE1 is 100 to 1000 nM; on CDK4/CyclinD1, under 10 nM; on CDK1/CyclinB, at least 1000 nM.

Take `CC(C)n1c(C(C)(C)O)nc2c(F)cc(-c3cc(N[C@@H]4CCOC[C@H]4O)ncc3Cl)cc21` [Example 12, (3S,4R)-4-((5-chloro-4-(4-fluoro-2-(2-hydroxypropan-2-yl)-1-isopropyl-1H-benzo[d]imidazol-6-yl)pyridin-2-yl)amino)tetrahydro-2H-pyran-3-ol]: the IC50 is at least 1000 nM on CDK2/CyclinE1, 10 to 100 nM on CDK4/CyclinD1 and at least 1000 nM on CDK1/CyclinB.

In the case of `O[C@@H]1COCC[C@H]1Nc1ncc(Cl)c(-c2cc(F)c3ncc4c(c3c2)CCNC4)n1` [Example 8, (3S,4R)-4-((5-chloro-4-(7-fluoro-1,2,3,4-tetrahydrobenzo[c][2,7]naphthyridin-9-yl)pyrimidin-2-yl)amino)tetrahydro-2H-pyran-3-ol], the figures for the IC50 at CDK2/CyclinE1, at CDK4/CyclinD1 and on CDK1/CyclinB were under 10 nM, under 10 nM and 10 to 100 nM, respectively.

For the molecule `CNC(C)c1cc2cc(-c3nc(N[C@@H]4CCOC[C@H]4O)ncc3Cl)cc(F)c2nc1C` (single isomer, unassigned) [Example 45a], the IC50 at CDK2/CyclinE1 is 100 to 1000 nM; on CDK4/CyclinD1 it was under 10 nM; at CDK1/CyclinB, 100 to 1000 nM.

Regarding `CC1(C)Cc2cnc3c(F)cc(-c4nc(N[C@@H]5CCOC[C@H]5O)ncc4C#N)cc3c2CN1` [Example 49], the IC50 on CDK2/CyclinE1 is 100 to 1000 nM; on CDK4/CyclinD1 it was under 10 nM; on CDK1/CyclinB it was at least 1000 nM.

As to `CC1(C)Cc2cnc3c(F)cc(-c4nc(N[C@@H]5CCOC[C@H]5O)ncc4F)cc3c2CN1` [Example 24, (3S,4R)-4-((5-fluoro-4-(7-fluoro-3,3-dimethyl-1,2,3,4-tetrahydrobenzo[c][2,6]naphthyridin-9-yl)pyrimidin-2-yl)amino)tetrahydro-2H-pyran-3-ol], the IC50 at CDK2/CyclinE1 was 10 to 100 nM; on CDK4/CyclinD1, under 10 nM; at CDK1/CyclinB it was 100 to 1000 nM.

On to `Cc1c(C(C)NC2CC2)cnc2c(F)cc(-c3nc(N[C@@H]4CCOC[C@H]4O)ncc3Cl)cc12` (single isomer, unassigned) [Example 91b], for which the values for the IC50 at CDK2/CyclinE1, at CDK4/CyclinD1 and on CDK1/CyclinB were 100 to 1000 nM, under 10 nM and at least 1000 nM, respectively.

As to `CC(C)(O)c1cnc2c(F)cc(-c3nc(Nc4ccc(-c5c[nH]cn5)cn4)ncc3F)cc2c1Cl` [Example 52], the IC50 on CDK2/CyclinE1 is at least 1000 nM; on CDK4/CyclinD1, under 10 nM; on CDK1/CyclinB, at least 1000 nM.

With `CC(O)c1cnc2c(F)cc(-c3nc(N[C@@H]4CCOC[C@H]4O)ncc3Cl)cc2c1Cl` (single isomer, unassigned) [Example 40a], the figures for the IC50 on CDK2/CyclinE1 and on CDK4/CyclinD1 were 100 to 1000 nM and under 10 nM, respectively.

The values are drawn from patent US20260242395A1, “AMINOHETEROARYL KINASE INHIBITORS” (ALLORION THERAPEUTICS INC, priority 2022, published 2026).
